Where “and” joins values, the source holds several entries; their conditions need not be identical. Equal entries are not always repeated.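 Each compound was tested at five concentrations against cells in 96-well plates for 48 hours. GI50 marks 50% less growth. TGI denotes the concentration required for complete inhibition of growth.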
Legend:
Test in all cases: growth of human tumour cells (NCI), 48 h
HL-60(TB) leukemia = test system: HL-60(TB) leukemia
RXF 393 renal = test system: RXF 393 renal
COLO 205 colon = test system: COLO 205 colon
LOX IMVI melanoma = test system: LOX IMVI melanoma
SNB-19 CNS = test system: SNB-19 CNS
MDA-MB-435 = test system: MDA-MB-435
UACC-62 melanoma = test system: UACC-62 melanoma
SR leukemia = test system: SR leukemia
U251 CNS = test system: U251 CNS
SNB-75 CNS = test system: SNB-75 CNS

SMILES | TGI (HL-60(TB) leukemia) [µM] | TGI (RXF 393 renal) [µM] | TGI (COLO 205 colon) [µM] | TGI (LOX IMVI melanoma) [µM] | TGI (SNB-19 CNS) [µM] | TGI (MDA-MB-435) [µM] | TGI (UACC-62 melanoma) [µM] | TGI (SR leukemia) [µM] | TGI (U251 CNS) [µM] | TGI (SNB-75 CNS) [µM] | GI50 (HL-60(TB) leukemia) | GI50 (MDA-MB-435) | GI50 (SR leukemia) | GI50 (U251 CNS)
Cc1ccc(Nc2nc3[nH]ccc3c(=O)[nH]2)cc1 | > 100 | > 100 | > 100 | > 100 | > 100 | > 100 | > 100 | > 100 | > 100 | 49.9 |  |  |  | 
O=[N+]([O-])c1ccccc1OCCOc1ccccc1[N+](=O)[O-] | > 100 | > 100 | > 100 | > 100 | > 100 | > 100 | > 100 | > 100 | > 100 | > 100 |  |  |  | 
CC(C)(C)c1ccc(OCCOc2ccc(C(C)(C)C)cc2N)c(N)c1 | > 100 | > 100 | > 100 | > 100 | > 100 | > 100 | > 100 | > 100 | > 100 | > 100 |  |  |  | 
O=C1c2cccc([N+](=O)[O-])c2C(=O)N1Cc1ccccc1 | > 100 | > 100 | > 100 | > 100 | > 100 | > 100 | > 100 | > 100 | > 100 | > 100 |  |  |  | 
CCN(CCCOc1ccccc1)CCN(CC)CCCOc1ccccc1 | 25.4 | 38.5 | 24.5 | 27.9 | 23.4 | 34.2 | 36.7 | 26.6 | 27.5 | 48.6 |  |  |  | 
CC(=O)c1c(-c2cccc3ccccc23)c(C#N)c(=S)n(C2OC(CO)C(O)C(O)C2O)c1C (centres undefined) | > 100 | > 100 | > 100 | > 100 | > 100 | > 100 | > 100 | > 100 | > 100 | > 100 | > 100 µM and 42.1 µM | > 100 µM and 46.9 µM | > 100 µM and 33.6 µM | > 100 µM and 48.9 µM
OC1[C@@H]2[C@@H](O)CCCN2C[C@@H](O)[C@H]1O (some centres undefined) | > 100 | > 100 | > 100 | > 100 | > 100 | > 100 | > 100 | > 100 | > 100 | > 100 |  |  |  | 
CCC/C(Cl)=N\OC(=O)Nc1ccc(F)cc1 | 3.86 | 33.1 | 8.97 | 9.97 | 40.9 | 31.9 | 27.5 | 5.49 | 34.8 | > 58 |  |  |  | 
CC(C)/C(Cl)=N/OC(=O)Nc1ccc(Br)cc1 | 7.62 | 23.9 | 3.43 | 2.85 | 44.1 | 30.7 | 17 | 4.5 | 37.3 | 34.3 |  |  |  | 
COc1ccc(N2C(=O)C3c4[nH]c5ccc(OCc6ccccc6)cc5c4C4CCC(c5ccccc5)CC4C3C2=O)cc1 (centres undefined) | 33.3 | 21.1 | > 100 | > 100 | 40.1 | 12.1 | 29 | 7.14 | 11.2 | 27.2 |  |  |  | 
C[C@@]1(O)C2CC3CC1(c1ccccc1)CC(/C3=N/O)/C2=N\O (some centres undefined) | > 100 | > 100 | > 100 | > 100 | > 100 | > 100 | > 100 | > 100 | > 100 | > 100 |  |  |  | 
NC(=O)CNC(=O)[C@@H]1CC(OCCC(=O)O)CN1C(=O)C1CCCN1C(=O)OCc1ccccc1 (some centres undefined) | > 100 | > 100 | > 100 | > 100 | > 100 | > 100 | > 100 | > 100 | > 100 | > 100 |  |  |  | 
O=C(O)CCc1nc2c(n1-c1ccccc1)C(=O)c1ccccc1C2=O | > 100 | > 100 | > 100 | > 100 | > 100 | > 100 | > 100 | > 100 | > 100 | > 100 |  |  |  | 
C=CCOC(=O)N1c2ccc(O[Si](C)(C)C(C)(C)C)cc2[C@@]23O[C@@]24[C@@H]1C#C/C=C\C#C[C@]3(O)C(OC)(OC)C[C@@H]4C | > 100 | > 100 | > 100 | > 100 | > 100 | > 100 | > 42 | > 100 | > 100 | > 75.9 |  |  |  | 

Source: PubChem BioAssay (NCI)
